Assay results reported in publication PMC8348070, “Structure-Based Designing, Solvent Less Synthesis of 1,2,3,4-Tetrahydropyrimidine-5-carboxylate Derivatives: A Combined In Vitro and In Silico Screening Approach” (Molecules, 2021).
Converted amounts (≈) assume the structure as drawn.

How the values were obtained:
[1] = MTT cytotoxicity (cell viability) assay; type: cell-based, human; conditions: human, HepG2 cell line, 48 h, Figure 6
Description: (§1) Cells were treated with extracts/compound dissolved in DMSO with a final DMSO concentration of 0.05%. DMSO treated cells were used as control in all the experiments. Cell viability was determined by MTT assay as described by us previously. Briefly, HepG2 cells were treated with different concentrations of compounds for 48 h. […] Subsequently, 150 μL DMSO was added to dissolve formazan crystals and absorbance was measured at 490 nm in a microplate reader (Thermo Scientific, Waltham, MA, USA). The percentage of cell viability was calculated.

[2] = Antioxidant free radical scavenging activity using DPPH; type: biochemical; conditions: Figure 7 and text
Description: The potential of synthesized compounds to scavenge the free radicals were assessed by using diphenylpicrylhydrazyl (DPPH) as free radical [48].
These stock solutions were then subjected to prepare their dilutions up to 250 µg, 200 µg, 150 µg, 100 µg, 50 µg and 25 µg respectively. DPPH solution of 4% was prepared by mixing 0.004 g of DPPH in 100 ml methanol (commercial grade). Ascorbic acid was used as control and its solution was prepared by mixing 0.0017612 g into 100 ml of water having 100 µg concentration.
In test tubes 1 mL of sample from each diluted solution and 2 mL of DPPH solution was added. In the same way, 1 mL of the ascorbic acid was added along with 2 ml of DPPH as control and allowed to stand overnight.

[3] = test system: HepG2 cells; experiment: MTT cytotoxicity (cell viability) assay; type: cell-based, human; conditions: Homo sapiens, HepG2, read-out: IC50 as anti-cancer agents
Description: as §1

Structure (SMILES) | IC50 at 48 h [1] [µg/mL] | melting point [°C] | further results
CCOC(=O)C1=C(C)NC(=O)NC1c1ccccc1F (stereo not drawn) [Compound 5a, 4-(2-fluorophenyl)-6-methyl-2oxo-1,2,3,4-tetrahydropyrimidine-5-carboxylate] | 16 (≈ 57.5 µM) | 230 to 233 | 
CCOC(=O)C1=C(C)NC(=O)NC1c1cccc(F)c1 (stereo not drawn) [Compound 5b, ethyl 4-(3-fluorophenyl)-6-methyl-2oxo-1,2,3,4-tetrahydropyrimidine-5-carboxylate] |  | 210 to 213 | IC50 at 48 h ([1]; HepG2 cells): 11.3 µg/mL (≈ 40.5 µM)
CCOC(=O)C1=C(C)NC(=O)NC1c1ccc(F)cc1 (stereo not drawn) [Compound 5c, ethyl 4-(4-fluorophenyl)-6-methyl-2oxo-1,2,3,4-tetrahydropyrimidine-5-carboxylate] | 7.29 (≈ 26.2 µM) |  | IC50 as anti-oxidant agents [2]: 6.261 µM
CCOC(=O)C1=C(C)NC(=S)NC1c1ccccc1F (stereo not drawn) [Compound 5d, ethyl 4-(2-fluorophenyl)-6-methyl-2-thioxo-1,2,3,4-tetrahydropyrimidine-5-carboxylate] | 25.5 (≈ 86.7 µM) |  | 
CCOC(=O)C1=C(C)NC(=S)NC1c1cccc(F)c1 (stereo not drawn) [Compound 5e, ethyl 4-(3-fluorophenyl)-6-methyl-2-thioxo-1,2,3,4-tetrahydropyrimidine-5-carboxylate] | 5.35 (≈ 18.2 µM) |  | IC50 [3]: 5.35 µg/mL (≈ 18.2 µM)
CCOC(=O)C1=C(C)NC(=S)NC1c1ccc(F)cc1 (stereo not drawn) [Compound 5f, ethyl 4-(4-fluorophenyl)-6-methyl-2thioxo-1,2,3,4-tetrahydropyrimidine-5-carboxylate] |  | 233 to 235 | IC50 at 48 h ([1]; HepG2 cells): 18.7 µg/mL (≈ 63.5 µM)
CCOC(=O)C1=C(C)NC(=S)NC1c1cccc(Cl)c1 (stereo not drawn) [Compound 5h, ethyl 4-(3-chlorophenyl)-6-methyl-2thioxo-1,2,3,4-tetrahydropyrimidine-5-carboxylate] | 13 (≈ 41.7 µM) |  | 
